# Reference: US20220313629A1, “TRANSIENT POTENTIAL MELASTATIN 8 (TRPM8) ANTAGONISTS AND RELATED METHODS” (MARSHALL UNIVERSITY RESEARCH CORPORATION, priority 2019, published 2022)
# Legend:
# [1] = Stability in liver microsomes; type: in vitro ADME; conditions: mouse liver microsomes, 1 μM, NADPH
# Procedure: Stability in liver microsomes. Male CD-1 mouse liver microsomes (Lot#1710069) were purchased from XenoTech. The reaction mixture, minus NADPH, was prepared as described below. Compound 14 was added into the reaction mixture at a final concentration of 1 μM. The control compound, testosterone, was run simultaneously with Compound 14 in a separate reaction. An aliquot of the reaction mixture (without cofactor) was equilibrated in a shaking water bath at 37° C. for 3 minutes. The reaction was initiated by the addition of the cofactor, and the mixture was incubated in a shaking water bath at 37° C. Aliquots (100 μL) were withdrawn at 0, 10, 20, 30, and 60 minutes. Compound 14 and testosterone samples were immediately combined with 400 μL of ice-cold 50/50 acetonitrile (ACN)/H2O containing 0.1% formic acid and internal standard to terminate the reaction. The samples were then mixed and centrifuged to precipitate proteins. All samples were assayed by LC-MS/MS using electrospray ionization. […] are compared to the PARR at time 0 to determine the percent remaining at each time point. Half-lives and intrinsic clearance were calculated using GraphPad software, fitting to a single-phase exponential decay equation.
# In vitro metabolic stability. Compound 14 was evaluated for metabolic stability in mouse liver microsomes by Absorption Systems (Exton, Pa.), by determining the percent remaining at 0, 10, 20, 30 and 60 minutes when incubated with mouse liver microsomes in the presence of NADPH. The half-life (t1/2) and in vitro intrinsic clearance (CLint) of Compound 14 was calculated, in addition to the control (testosterone).
# human TRPA1 = human TRPA1 (Homo sapiens, UniProt O75762); assay: TRPA1 agonist and antagonist Ca2+ flux assay (FLIPR, Fluo-8) in HEK293 cells stably expressing human TRPA1; type: cell-based; conditions: for hTRPA1 % Activation (n = 3-5): normalized to Emax of AITC (300 μM)
# [2] = system: icilin-induced wet-dog shakes (WDS) in ICR (CD1) mice; assay: Wet-dog shakes (WDS) assay, icilin-induced; type: in vivo, mouse
# [3] = HEK293, read-out: hTRPA1 % Inhibition (n = 3)
# Sequence of human TRPA1 (O75762 whole entry): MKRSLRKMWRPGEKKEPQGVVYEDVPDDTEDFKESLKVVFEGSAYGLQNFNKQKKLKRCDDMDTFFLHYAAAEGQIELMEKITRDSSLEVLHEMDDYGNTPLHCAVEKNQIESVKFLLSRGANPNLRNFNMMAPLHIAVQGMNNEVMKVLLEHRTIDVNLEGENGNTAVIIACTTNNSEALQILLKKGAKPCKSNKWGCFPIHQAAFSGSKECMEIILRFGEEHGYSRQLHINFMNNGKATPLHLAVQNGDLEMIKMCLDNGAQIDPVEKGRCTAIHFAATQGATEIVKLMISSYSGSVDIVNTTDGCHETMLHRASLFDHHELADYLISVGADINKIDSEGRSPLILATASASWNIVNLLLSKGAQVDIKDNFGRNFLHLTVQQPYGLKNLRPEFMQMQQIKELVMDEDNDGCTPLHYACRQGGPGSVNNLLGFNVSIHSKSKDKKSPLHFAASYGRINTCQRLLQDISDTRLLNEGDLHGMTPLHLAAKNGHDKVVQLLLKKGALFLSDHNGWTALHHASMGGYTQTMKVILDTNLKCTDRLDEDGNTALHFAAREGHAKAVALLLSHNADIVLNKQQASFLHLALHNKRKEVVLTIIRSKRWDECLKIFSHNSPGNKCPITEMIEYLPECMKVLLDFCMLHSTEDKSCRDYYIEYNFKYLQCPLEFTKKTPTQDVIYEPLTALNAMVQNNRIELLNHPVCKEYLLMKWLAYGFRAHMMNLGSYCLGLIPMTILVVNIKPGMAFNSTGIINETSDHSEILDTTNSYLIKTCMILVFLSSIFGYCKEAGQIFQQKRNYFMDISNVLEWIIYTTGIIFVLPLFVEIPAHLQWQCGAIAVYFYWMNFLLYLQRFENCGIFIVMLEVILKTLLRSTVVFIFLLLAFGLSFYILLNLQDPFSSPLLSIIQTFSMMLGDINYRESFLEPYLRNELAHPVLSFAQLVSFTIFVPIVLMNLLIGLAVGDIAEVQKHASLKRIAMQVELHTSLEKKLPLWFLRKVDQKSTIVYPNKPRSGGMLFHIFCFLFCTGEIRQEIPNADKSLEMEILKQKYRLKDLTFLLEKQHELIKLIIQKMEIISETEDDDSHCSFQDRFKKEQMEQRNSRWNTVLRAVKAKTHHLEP
structure (smiles),measurement,setting,value
"O=C(NC1CCC2(CCCC2)CC1)c1ccc(-c2ccccc2)cc1 [Compound 14, N-(spiro[4.5]decan-8-yl)-[1,1′-biphenyl]-4-carboxamide]","% Remaining of Initial (n = 1), 0 min",[1]; 0 min,100%
same,"% Remaining of Initial (n = 1), 10 min",[1]; 10 min,78%
same,"% Remaining of Initial (n = 1), 20 min",[1]; 20 min,57%
same,"% Remaining of Initial (n = 1), 30 min",[1]; 30 min,47%
same,"% Remaining of Initial (n = 1), 60 min",[1]; 60 min,31%
same,inhibition at 0.003 µM,human TRPA1; [3],-6 ± 5%
same,inhibition at 0.03 µM,human TRPA1; [3],-3 ± 2%
same,effect on hTRPA1-mediated responses (intrinsic and antagonist activity),human TRPA1; at concentrations 13- to 25-fold higher than hTRPM8 IC50,do not affect
same,selectivity for TRPM8 vs. TRPA1,human TRPA1; from FLIPR single-point assays,13 fold
same,hTRPA1 % Activation (n = 3-5),human TRPA1; tested at 3 nM,−0.8 ± 0.4%
same,hTRPA1 % Activation (n = 3-5),human TRPA1; tested at 30 nM,0.1 ± 1.2%
same,inhibition of WDS at the highest dose compared with gabapentin,"[2]; 50 mg/kg s.c., gabapentin 25 mg/kg s.c.",efficacy comparable to that observed with a standard analgesic dose of gabapentin
same,effect on icilin-induced wet-dog shakes,"[2]; 1, 30 and 50 mg/kg s.c. 30 minutes before icilin (10 mg/kg i.p.)","marked, dose-dependent antinociceptive behavior"
